Assay results: patent publication US6911478B2, “Nitric oxide-releasing amidine- and enamine-derived diazeniumdiolates, compositions and uses thereof and method of making same” (The United States of America as represented by the …, priority 1997, dated 2005)

Key:
Assay type in all cases: physicochemical
[1] = production of NO and N2O by amidine/nitric oxide adducts, headspace chemiluminescence (NO) and gas chromatography (N2O); details: for Yield NO / Yield N2O: headspace; for Yield NO: chemiluminescence; for Yield N2O: gas chromatography
From the text: (§1) Nitrous oxide (N2O), being the end product of HNO dimerization and dehydration, provided a measure of HNO production via the equation (Nagasawa et al., J. Med. Chem. 33: 3122-3124 (1990)): [drawing 12]
This example describes the measurement of the production of NO and N2O by amidine/nitric oxide adducts.

[2] = gas evolution on dissolving in water and acidifying; details: dissolved in water and acidified
From the text: as §1

[3] = time course of NO production in phosphate buffer pH 7.4 at 37° C., chemiluminescence detector; details: phosphate buffer pH 7.4, 37° C.; for initial NO release rate: start of experiment
Method: This example describes the measurement of the time course of NO production by amidine and enamine nitric oxide adducts.
The NO release rate was measured periodically by flushing the solution with inert N2 gas and then sweeping newly generated NO into a chemiluminescence detector and integrating the signal produced over the next 4-7 mins. NO release was measured over a period of two weeks.
None of these compounds released nitric oxide via a single pathway which produced a release profile consistent with first order kinetics. Accordingly, the results of each test are summarized here by giving the initial NO release rate, the rate at one intermediate timepoint and the total time of observed NO release for representative examples.

For “2-methyl-2-imidazoline tetrakis(nitric oxide)adduct [Example 2]”, the “Yield NO” value ([1]; 0.1 N HCl) was 0.45 moles per mole cmpd, the “Yield N2O” value ([1]; 0.1 N HCl) was 0.9 moles per mole cmpd and the “composition of evolving gas (NO and N2O)” value ([1]; pH 7.4, NO by chemiluminescence, N2O by gas chromatography) was 2 parts NO (determined by chemiluminescence) and 1 part N2O. The gas evolution [2] was “voluminous gas evolution”.

For O=NN(O)C1(C2=NCCN2)CCCCC1 [Example 5, 2-cyclohexyl-2-imidazoline bis(nitric oxide)adduct], the “Yield N2O” value ([1]; 0.1 N HCl) was 0.2 moles per mole cmpd.

With “idazoxan-bis(nitric oxide) adduct [Example 7]” the “time at which NO release reached zero” value [3] was ≤ 16 days, the “NO release rate after 4 days” value ([3]; after 4 days (gradually increased)) was 1.41×10^−10 moles NO/min./mg and the “initial NO release rate” value [3] was 5.25×10^−11 moles NO/min./mg.

With “tetrahydrozoline bis(nitric oxide)adduct [Example 6]” the “total time of observed NO release (in words)” value [3] was “continued for several weeks”, the “NO release rate, last quantitative measurement” value ([3]; 15 days after the beginning) was 9.00×10^−12 moles NO per min. per mg and the “NO release rate after 7 days” value ([3]; after 7 days) was 2.06×10^−11 moles NO per min. per mg. For the same compound, the “initial NO release rate” value [3] was 3.64×10^−11 moles NO/min./mg.

With “2-iminopiperidine bis(nitric oxide)adduct [Example 4]” the “Yield NO” value ([1]; pH 7.4 buffer) was −0.08 moles per mole cmpd and the “Yield N2O” value ([1]; pH 7.4 buffer) was 0.45 moles per mole cmpd.

For “cyclohexanone morpholine enamine bis(nitric oxide) adduct [Example 9]”, the “NO release profile, kinetic order” value [3] was “nearly first order kinetics”, the “time at which NO release reached zero” value [3] was ≤ 7 days and the “NO release rate after 3 days” value ([3]; after 3 days) was 1.8×10^−11 mole NO/min./mg. For the same compound, the “initial NO release rate” value [3] was 4.2×10^−11 moles NO/min./mg.

In the case of “acetamidine tetrakis (nitric oxide) adduct [Example 3]”, the “Yield NO” value ([1]; pH 7.4 buffer) is reported as 0.05 moles per mole cmpd and the “Yield N2O” value ([1]; pH 7.4 buffer) is reported as 0.64 moles per mole cmpd.

In the case of “isobutyraldehyde morpholine enamine bis (nitric oxide) adduct [Example 10]”, the “time at which NO release reached zero” value [3] is reported as 7 days, the “initial NO release rate” value [3] is reported as 3.7×10^−11 moles NO/min./mg and the “NO release rate after rapid decrease” value ([3]; remained at about this level for 4 days) is reported as 7.0×10^−12 mole NO/min./mg.
